Reference: patent US5792775A (priority 1996, dated 1998)
Entries after “also recorded” stand apart in the source; their conditions may differ. Read-outs that look alike come from different tables or passages of the source.

Key:
[1] = target: norepinephrine transporter (NET) (Rattus norvegicus, UniProt Q63380); test: biochemical; assay type: binding
muscarinic m1 receptors = target: T1, muscarinic m1 receptors (Rattus norvegicus, UniProt P08482); test: biochemical; assay type: binding
T1 sequence (P08482 1-460): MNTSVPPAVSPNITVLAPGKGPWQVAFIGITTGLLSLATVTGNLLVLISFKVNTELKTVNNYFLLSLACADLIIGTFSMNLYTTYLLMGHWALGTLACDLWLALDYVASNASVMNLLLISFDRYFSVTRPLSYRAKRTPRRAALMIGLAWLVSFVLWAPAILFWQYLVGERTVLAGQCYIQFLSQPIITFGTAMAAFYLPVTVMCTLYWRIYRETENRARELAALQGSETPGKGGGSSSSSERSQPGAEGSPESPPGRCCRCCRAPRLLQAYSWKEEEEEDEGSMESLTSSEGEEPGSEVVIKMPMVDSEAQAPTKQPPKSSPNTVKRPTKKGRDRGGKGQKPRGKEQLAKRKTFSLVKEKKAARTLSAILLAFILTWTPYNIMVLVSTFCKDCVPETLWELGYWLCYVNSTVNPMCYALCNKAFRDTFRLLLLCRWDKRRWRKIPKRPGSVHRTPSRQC

muscarinic m2 receptors = target: T2, muscarinic m2 receptors (Rattus norvegicus, UniProt P10980); test: Muscarinic m2 receptor binding ([^3 H]AFDX 384), NOVASCREEN; details: for muscarinic m2 affinity relative to dopamine transporter affinity: in words
T2 sequence (P10980 1-466): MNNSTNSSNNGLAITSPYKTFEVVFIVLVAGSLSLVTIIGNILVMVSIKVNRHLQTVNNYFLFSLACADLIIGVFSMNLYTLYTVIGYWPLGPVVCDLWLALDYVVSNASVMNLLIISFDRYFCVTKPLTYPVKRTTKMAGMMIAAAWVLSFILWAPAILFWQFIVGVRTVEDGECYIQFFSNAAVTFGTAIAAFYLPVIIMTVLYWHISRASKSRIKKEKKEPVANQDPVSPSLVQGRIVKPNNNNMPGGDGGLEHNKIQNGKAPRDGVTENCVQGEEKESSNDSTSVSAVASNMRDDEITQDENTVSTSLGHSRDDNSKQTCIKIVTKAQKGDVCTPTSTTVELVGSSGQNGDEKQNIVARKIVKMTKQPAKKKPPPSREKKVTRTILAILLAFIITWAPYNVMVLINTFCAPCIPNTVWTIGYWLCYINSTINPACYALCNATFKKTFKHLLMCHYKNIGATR
Text: (§1) Serotonin (5-HTT), norepinephrine transporter (NET) and muscarinic m1 and m2 receptor binding data were provided by NOVASCREEN.

[2] = system: dopamine uptake, rat caudate putamen; assay type: biochemical
[3] = target: serotonin transporter (5HTT) (Rattus norvegicus, UniProt P31652); test: Serotonin transporter binding ([^3 H]citalopram), NOVASCREEN
Text: as §1

[4] = target: T3, dopamine transporter (DAT) (Rattus norvegicus, UniProt P23977); test: Displacement of [^3 H]WIN 35,428 binding (Dopamine Transporter Binding Assay); details: for Ki: Table III, displacement of [^3 H]WIN 35,428, rat caudate putamen, % error in parentheses
T3 construct: brains removed to an ice-cooled dish for dissection of the caudate putamen; from tissue; host or cells: rat caudate putamen, washed membranes of male Sprague-Dawley rats (Taconic)

[5] = Table IV, head prints no unit, IC50 in nM, read-out: [^3 H]DAU (inhibition of [^3 H]-Dopamine Uptake)
[6] = read-out: NET, % Inhibition at 10 μM
[7] = Table V, rat caudate putamen, read-out: [^3 H]DA Uptake Inhibition IC50
[8] = Table III, footnote d, read-out: 5HTT Ki value in nM (bracketed)
[9] = Table III footnote b, read-out: m2, % Inhibition of radiolabeled ligand binding

norepinephrine transporter (NET), sequence (Q63380 1-617): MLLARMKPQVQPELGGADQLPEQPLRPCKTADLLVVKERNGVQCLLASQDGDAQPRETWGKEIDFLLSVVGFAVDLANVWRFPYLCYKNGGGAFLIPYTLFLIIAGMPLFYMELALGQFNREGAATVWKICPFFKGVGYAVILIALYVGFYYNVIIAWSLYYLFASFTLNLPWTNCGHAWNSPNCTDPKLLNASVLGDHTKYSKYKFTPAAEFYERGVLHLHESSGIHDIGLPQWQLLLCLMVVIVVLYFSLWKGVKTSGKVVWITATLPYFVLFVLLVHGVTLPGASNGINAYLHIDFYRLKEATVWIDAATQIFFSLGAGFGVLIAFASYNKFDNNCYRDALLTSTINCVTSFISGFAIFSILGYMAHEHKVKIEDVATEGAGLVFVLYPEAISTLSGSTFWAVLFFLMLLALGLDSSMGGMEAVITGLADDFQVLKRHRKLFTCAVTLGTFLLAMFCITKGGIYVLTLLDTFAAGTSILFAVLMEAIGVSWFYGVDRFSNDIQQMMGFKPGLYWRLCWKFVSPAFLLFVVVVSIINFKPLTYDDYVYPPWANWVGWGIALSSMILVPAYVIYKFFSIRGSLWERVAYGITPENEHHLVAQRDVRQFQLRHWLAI
T3 sequence (P23977 whole entry): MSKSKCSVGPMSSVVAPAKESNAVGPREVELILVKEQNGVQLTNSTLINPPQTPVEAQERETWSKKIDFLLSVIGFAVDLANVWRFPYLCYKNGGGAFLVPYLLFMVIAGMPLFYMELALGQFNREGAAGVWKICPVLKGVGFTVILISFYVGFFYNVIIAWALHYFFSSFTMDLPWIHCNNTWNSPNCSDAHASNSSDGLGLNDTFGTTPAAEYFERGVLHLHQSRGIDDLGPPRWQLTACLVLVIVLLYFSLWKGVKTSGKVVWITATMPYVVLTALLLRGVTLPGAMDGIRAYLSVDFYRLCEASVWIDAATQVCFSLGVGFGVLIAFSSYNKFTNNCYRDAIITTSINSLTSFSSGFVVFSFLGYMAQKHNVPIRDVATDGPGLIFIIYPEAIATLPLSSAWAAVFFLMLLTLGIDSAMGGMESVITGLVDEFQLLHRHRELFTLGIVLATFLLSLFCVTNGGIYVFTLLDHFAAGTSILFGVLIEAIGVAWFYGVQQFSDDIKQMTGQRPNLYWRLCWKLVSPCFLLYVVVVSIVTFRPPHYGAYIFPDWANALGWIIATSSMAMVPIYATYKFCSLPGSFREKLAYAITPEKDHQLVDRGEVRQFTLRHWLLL
serotonin transporter (5HTT), sequence (P31652 whole entry): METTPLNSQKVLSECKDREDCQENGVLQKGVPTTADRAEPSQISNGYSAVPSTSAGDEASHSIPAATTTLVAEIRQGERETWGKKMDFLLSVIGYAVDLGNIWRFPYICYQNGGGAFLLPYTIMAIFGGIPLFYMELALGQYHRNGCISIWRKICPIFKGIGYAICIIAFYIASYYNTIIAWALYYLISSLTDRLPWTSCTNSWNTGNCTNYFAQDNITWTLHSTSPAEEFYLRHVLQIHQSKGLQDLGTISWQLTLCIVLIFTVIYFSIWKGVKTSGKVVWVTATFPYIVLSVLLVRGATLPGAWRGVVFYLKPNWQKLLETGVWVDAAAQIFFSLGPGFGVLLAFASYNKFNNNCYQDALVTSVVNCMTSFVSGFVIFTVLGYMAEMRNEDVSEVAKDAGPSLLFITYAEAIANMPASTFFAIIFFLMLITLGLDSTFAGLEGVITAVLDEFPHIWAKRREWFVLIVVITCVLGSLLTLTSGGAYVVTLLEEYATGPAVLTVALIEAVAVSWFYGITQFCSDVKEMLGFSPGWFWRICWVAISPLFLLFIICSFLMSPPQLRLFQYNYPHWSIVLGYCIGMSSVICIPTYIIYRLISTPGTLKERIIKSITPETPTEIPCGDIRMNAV

Structure (SMILES) | IC50 [2, 5] [nM] | inhibition at 10 µM ([1]; read-out: NET (% I@10 μM)) [%] | inhibition at 10 µM ([3]; read-out: 5HTT (% I@10 μM)) [%] | IC50 [2, 7] [nM] | Ki (muscarinic m2 receptors; Table III) [nM] | Ki (muscarinic m1 receptors; Table III, read-out: m1, Ki) [nM] | Ki [4] [nM] | further results
Fc1ccc(C(O[C@H]2C[C@H]3CC[C@@H](C2)N3)c2ccc(F)cc2)cc1 [AHN 2-003, N-nor-4',4"-difluorobenztropine] | 10 | – | – | – | – | – | – | Ki [1]: > 8000 nM; Ki (muscarinic m1 receptors; Table IV, read-out: m1, Ki): 90.7 nM; Ki (muscarinic m2 receptors; Table IV): 620 nM
C=CCN1[C@@H]2CC[C@H]1C[C@@H](OC(c1ccc(F)cc1)c1ccc(F)cc1)C2 [AHN 2-005, N-allyl-4',4"-difluorobenztropine] | 14 | – | – | – | – | – | – | inhibition at 10 µM [1, 6]: 22.1%; Ki [3]: 1970 nM; Ki (muscarinic m1 receptors; Table IV, read-out: m1, Ki): 89.1 nM; Ki (muscarinic m2 receptors; Table IV): 254 nM
Fc1ccc(C(O[C@H]2C[C@H]3CC[C@@H](C2)N3CC=Cc2ccccc2)c2ccc(F)cc2)cc1 [AHN 2-006] | 184 | – | – | – | – | – | – | Ki [1]: 577 nM; Ki [3]: 1490 nM; Ki (muscarinic m1 receptors): 240 nM; Ki (muscarinic m2 receptors; Table IV): 1590 nM
O=CN1[C@@H]2CC[C@H]1C[C@@H](OC(c1ccc(F)cc1)c1ccc(F)cc1)C2 [AHN 2-032] | 5380 | – | – | – | – | – | – | inhibition at 10 µM [1, 6]: 29%; inhibition at 10 µM ([3]; Table IV footnote b, 10 μM, read-out: 5HHT, % Inhibition at 10 μM): 1.6%; inhibition at 10 µM (muscarinic m1 receptors; Table IV footnote b, 10 μM): 54%; inhibition at 10 µM (muscarinic m2 receptors; Table IV footnote b, read-out: m2, % Inhibition at 10 μM): 62%
CN1[C@@H]2CC[C@H]1C[C@@H](OC(c1ccccc1)c1ccc(Cl)cc1)C2 (stereo partly drawn) [Compound 7a, 4'-Cl-3α-(diphenylmethoxy)tropane] | – | 32 | 34 | 115 | – | – | – | –
CN1[C@@H]2CC[C@H]1C[C@@H](OC(c1ccc(Cl)cc1)c1ccc(Cl)cc1)C2 [Compound 7b] | – | 43 | – | – | 1490 | – | – | Ki [1]: > 6000 nM
COc1ccc(C(O[C@H]2C[C@H]3CC[C@@H](C2)N3C)c2ccccc2)cc1 (stereo partly drawn) [Compound 7d, 4'-methoxy-3α-(diphenylmethoxy)tropane] | – | 30.9 | 30.5 | 468 | 18.9 | 4.2 | – | –
COc1ccc(C(O[C@H]2C[C@H]3CC[C@@H](C2)N3C)c2ccc(OC)cc2)cc1 [Compound 7e] | – | 34 | 31 | 2880 | 1000 | 39.6 | – | –
CN1[C@@H]2CC[C@H]1C[C@@H](OC(c1ccccc1)c1ccc([N+](=O)[O-])cc1)C2 (stereo partly drawn) [Compound 7f] | – | 29 | 54 | 219 | 41.9 | 7.1 | 197 | Ki [3, 8]: > 3570 nM
CN1[C@@H]2CC[C@H]1C[C@@H](OC(c1ccccc1)c1ccc(C#N)cc1)C2 (stereo partly drawn) [Compound 7g] | – | 16 | 40 | 222 | 74 | – | 196 | Ki (muscarinic m1 receptors; read-out: m1, Ki): 7.1 nM
CN1[C@@H]2CC[C@H]1C[C@@H](OC(c1ccccc1)c1ccc(Br)cc1)C2 (stereo partly drawn) [Compound 7h] | – | 37 | 39 | 29 | 39.1 | 3.7 | 37.9 | –
CN1[C@@H]2CC[C@H]1C[C@@H](OC(c1ccc(Br)cc1)c1ccc(Br)cc1)C2 [Compound 7i] | – | 41.1 | 41 | 34 | – | – | 91.6 | lower affinity for muscarinic m1 receptors than the parent benztropine (muscarinic m1 receptors): > 70 fold; inhibition at 10 µM (muscarinic m2 receptors; [9]): 66%
CN1[C@@H]2CC[C@H]1C[C@@H](OC(c1ccccc1)c1ccc(F)cc1)C2 (stereo partly drawn) [Compound 7j] | – | 37.9 | 35.2 | – | 15 | 1.1 | – | –
CN1[C@@H]2CC[C@H]1C[C@@H](OC(c1ccccc1)c1ccc(Cl)c(Cl)c1)C2 (stereo partly drawn) [Compound 7k] | – | 56.5 | 66.2 | 47 | 141 | 12.5 | 22.1 | Ki ([1]; read-out: NET Ki value in nM (bracketed), Table III, footnote d): > 4870 nM; Ki [3, 8]: > 1790 nM
CN1[C@@H]2CC[C@H]1C[C@@H](OC(c1ccc(F)cc1)c1ccc(Cl)c(Cl)c1)C2 (stereo partly drawn) [Compound 7l] | – | 57.8 | 80.3 | 24 | 369 | 33 | 18.9 | Ki [1]: > 9000 nM; Ki [3, 8]: > 691 nM
CN1[C@@H]2CC[C@H]1C[C@@H](OC(c1ccccc1)c1ccc(C(F)(F)F)cc1)C2 (stereo partly drawn) [Compound 7m] | – | 34.6 | 49.1 | 2160 | 1510 | 5.4 | 635 | selectivity for m1 over m2 sites (muscarinic m1 receptors; m1 vs. m2): ~300 fold
CN1[C@@H]2CC[C@H]1C[C@@H](OC(c1ccccc1)c1ccc(C(C)(C)C)cc1)C2 (stereo partly drawn) [Compound 7n] | – | 37.6 | 24.7 | 4460 | – | 148 | – | inhibition at 10 µM (muscarinic m2 receptors; [9]): 54%
Cc1ccc(C(O[C@H]2C[C@H]3CC[C@@H](C2)N3C)c2ccc(C)cc2)cc1 [Compound 7o] | – | 35.1 | 35.5 | 2540 | 716 | 47.2 | 420 | –
Cc1ccc(C(O[C@H]2C[C@H]3CC[C@@H](C2)N3C)c2ccccc2)cc1 (stereo partly drawn) [Compound 7p] | – | 31.8 | 35.4 | 512 | 37.5 | 2.7 | 187 | –
Fc1ccc(C(O[C@H]2C[C@H]3CC[C@@H](C2)N3Cc2ccccc2)c2ccc(F)cc2)cc1 [JHW 005] | 285 | – | – | – | – | – | – | Ki [3]: 1810 nM; Ki (muscarinic m1 receptors; Table IV, read-out: m1, Ki): 2490 nM; muscarinic m1 affinity relative to dopamine transporter affinity (muscarinic m1 receptors; in words): significantly lower binding affinities at the muscarinic m1 and m2 receptors as compared to binding affinities at the dopamine transporter; Ki (muscarinic m2 receptors; Table IV): 276 nM; muscarinic m2 affinity relative to dopamine transporter affinity (muscarinic m2 receptors): significantly lower binding affinities at the muscarinic m1 and m2 receptors as compared to binding affinities at the dopamine transporter
CCCCN1[C@@H]2CC[C@H]1C[C@@H](OC(c1ccc(F)cc1)c1ccc(F)cc1)C2 [JHW 007] | – | – | – | – | – | – | – | Ki (muscarinic m1 receptors): 527 nM; muscarinic m1 affinity relative to dopamine transporter affinity (muscarinic m1 receptors): significantly lower binding affinities at the muscarinic m1 and m2 receptors as compared to binding affinities at the dopamine transporter; Ki (muscarinic m2 receptors; Table IV): 308 nM; muscarinic m2 affinity relative to dopamine transporter affinity (muscarinic m2 receptors): significantly lower binding affinities at the muscarinic m1 and m2 receptors as compared to binding affinities at the dopamine transporter; IC50 ([2]; Table IV footnote d: biphasic inhibition curve, IC50 in nM, read-out: [^3 H]DAU (inhibition of [^3 H]-Dopamine Uptake), biphasic inhibition curve): 371 nM
Fc1ccc(C(O[C@H]2C[C@H]3CC[C@@H](C2)N3CCCc2ccccc2)c2ccc(F)cc2)cc1 [JHW 010] | 227 | – | – | – | – | – | – | Ki (muscarinic m1 receptors): 273 nM; Ki (muscarinic m2 receptors; Table IV): 499 nM
Fc1ccc(C(O[C@H]2C[C@H]3CC[C@@H](C2)N3CC2CC2)c2ccc(F)cc2)cc1 [JHW 013] | 180 | – | – | – | – | – | – | Ki [1]: 117 nM; Ki [3]: 53.4 nM; Ki (muscarinic m1 receptors; Table IV, read-out: m1, Ki): 7.7 nM
Fc1ccc(CN2[C@@H]3CC[C@H]2C[C@@H](OC(c2ccc(F)cc2)c2ccc(F)cc2)C3)cc1 [JKW 009] | 204 | – | – | – | – | – | – | inhibition at 10 µM [1, 6]: 60%; Ki [3]: 53.4 nM; Ki (muscarinic m1 receptors): 0.45 nM
COC(=O)[C@H]1[C@@H](c2ccc(F)cc2)C[C@@H]2CC[C@H]1N2C [[^3 H]WIN 35,428, 2β-carbomethoxy-3β-(4-fluorophenyl)tropane, reference compound] | – | – | – | – | – | – | – | Bmax, high affinity component of [^3 H]WIN 35,428 binding ([4]; high affinity component, LIGAND analysis): 445±338 fmol/mg protein; Bmax, low affinity component of [^3 H]WIN 35,428 binding ([4]; low affinity component, LIGAND analysis): 1995±559 fmol/mg protein
COC(=O)[C@H]1[C@@H](OC(=O)c2ccccc2)C[C@@H]2CC[C@H]1N2C [cocaine, reference compound] | – | – | – | – | – | – | – | mode of displacement of [^3 H]WIN 35,428 binding ([4]; monophasic vs. biphasic): biphasic displacement; also recorded: revealed two binding sites
